In US20220008425A1, “Pharmaceutical Composition for Treating B-Cell Lymphoma” (FUNDAN UNIVERSITY SHANGHAI CANER CENTER, priority 2018, published 2022):
“Also recorded” adds a separate entry of the source.

Experiments:
[1] = tested on: acute promyelocytic leukemia (APL); settings: APL patients; ATRA alone; cited from earlier work
[2] = tested on: SOX2 in tumor tissues grown from NU-DUL-1-RCHO-Luc cells; assay: SOX2 immunohistochemical staining of tumor tissues from the transplantation model; assay type: in vivo, SCID mice; settings: tumors from NU-DUL-1-RCHO-Luc cells; compared with saline control
Text: Construction of a transplantation model: we transduced LY8-RCHO cells and NU-DUL-1-RCHO cells with lentiviruses overexpressing the firefly luciferase gene to generate stable cells expressing firefly luciferase, referred to as LY8-RCHO-Luc cells and NU-DUL-1-RCHO-Luc cells, respectively. 8-week-old female SCID mice were purchased from SLAC (Shanghai laboratory animal center). The LY8-RCHO-Luc cells and NU-DUL-1-RCHO-Luc cells were resuspended in PBS prior to intraperitoneal injection of 1.5×10^7 cells per mouse. After intraperitoneal injection of the LY8-RCHO-Luc cells, mice were randomized into 6 groups (7 mice in every group) and given saline, R-CHOP, duvelisib, abemaciclib, R-CHOP+duvelisib, and R-CHOP+abemaciclib, respectively. Mice inoculated with the NU-DUL-1-RCHO-Luc cells were randomly divided into 6 groups (7 mice in every group), and were given saline, R-CHOP, duvelisib, AZD4547, R-CHOP+duvelisib, and R-CHOP+AZD4547, respectively. […] Tumor growth was monitored by bioluminescence at day 50 and day 90 after inoculation. For in vivo luminescence imaging, D-luciferin (Promega, Madison, Wis.) was intraperitoneally injected into mice (150 mg/kg). […] Luminescence images were captured with an exposure time of 30 seconds and the signal intensity of the tumor was measured by using Bruker MI software. The survival time of each mouse was recorded. […]
Tumor tissues from patients or animal models were fixed with 4% formalin, embedded in paraffin and sectioned. […] Immunoreactivity was then detected by using a GTVision III immunohistochemical detection kit (GK500705; Gene Tech Inc., Shanghai, China) according to its instructions. Quantitative scoring of immunostaining for SOX2, p-AKT, CDK6, FGFR1 and FGFR2 was performed on three independent sections under the microscope, according to the formula: score=3 (strong positive)×percentage+2 (medium positive)×percentage+1 (weak positive)×percentage+0 (negative)×percentage.

NU-DUL-1-RCHO cells [3] = assay: EdU cell proliferation assay; assay type: cell-based, human; settings: 1 μM, time point (48 or 120 hours) not given
Method: RCHO-resistant DLBCL cells were pretreated with duvelisib, abemaciclib, or AZD4547 at a concentration of 1 μM for 48 or 120 hours prior to EdU assay. For 120 hours of the study, the medium was replaced with a fresh medium containing 1 μM of inhibitor at 48 hours. EdU cell proliferation assay was performed by using a cell-light EdU Apollo643 in vitro flow cytometry kit (RiboBio Inc., Guangzhou, China) according to its instructions. Next, we assayed EdU staining positive cells on a Cytomics FC500 MPL flow cytometer (Beckman Coulter, Brea, Calif.).

NU-DUL-1-RCHO-Luc cells = assay: Transplantation model, bioluminescence tumor growth and survival; assay type: in vivo; settings: SCID mice bearing NU-DUL-1-RCHO-Luc cells
Text: Construction of a transplantation model: we transduced LY8-RCHO cells and NU-DUL-1-RCHO cells with lentiviruses overexpressing the firefly luciferase gene to generate stable cells expressing firefly luciferase, referred to as LY8-RCHO-Luc cells and NU-DUL-1-RCHO-Luc cells, respectively. 8-week-old female SCID mice were purchased from SLAC (Shanghai laboratory animal center). The LY8-RCHO-Luc cells and NU-DUL-1-RCHO-Luc cells were resuspended in PBS prior to intraperitoneal injection of 1.5×10^7 cells per mouse. After intraperitoneal injection of the LY8-RCHO-Luc cells, mice were randomized into 6 groups (7 mice in every group) and given saline, R-CHOP, duvelisib, abemaciclib, R-CHOP+duvelisib, and R-CHOP+abemaciclib, respectively. Mice inoculated with the NU-DUL-1-RCHO-Luc cells were randomly divided into 6 groups (7 mice in every group), and were given saline, R-CHOP, duvelisib, AZD4547, R-CHOP+duvelisib, and R-CHOP+AZD4547, respectively. The drug dosing method based on one course of clinical use is shown in Table 1; the R-CHOP regimen was clinically used to treat DLBCL, while duvelisib, abemaciclib, and AZD4547 were tested in clinical trials (associated NCT numbers are NCT02576275, NCT01739309, and […], respectively). Tumor growth was monitored by bioluminescence at day 50 and day 90 after inoculation. For in vivo luminescence imaging, D-luciferin (Promega, Madison, Wis.) was intraperitoneally injected into mice (150 mg/kg). After 10 minutes, the mice were anesthetized by intraperitoneal injection of pentobarbital (50 mg/kg) and then their bioluminescence intensity was examined by using an In Vivo MS FX PRO system (Bruker Corporation, Billerica, Mass.). Luminescence images were captured with an exposure time of 30 seconds and the signal intensity of the tumor was measured by using Bruker MI software. The survival time of each mouse was recorded. Surviving mice were euthanized and dissected 120 days after inoculation and no intraperitoneal tumors were found. Tumor tissue was collected from moribund mice and fixed with 4% formalin. All animal experiments were performed in strict accordance with the experiment protocol approved by the animal ethics committee of Shanghai school of medicine of Fudan university.

NU-DUL-1-RCHO cells [4] = settings: 48 hours
Method: Further, we constructed LY8 and NU-DUL-1 cells resistant to chemotherapeutic drugs. Briefly, LY8-ORI and NU-DUL-1-ORI cells were treated with doxorubicin (Selleck Chemicals, Houston, Tex.) and vincristine (Selleck Chemicals, Houston, Tex.) at a clinical ratio of 50:1.4 by increasing the concentration. […] These cells were then treated with 2 μg/mL of 4-hydroperoxycyclophosphamide (4-HC) (Santa Cruz Biotechnology, Inc., Santa Cruz, Calif.) every 21 days for 3 cycles. The obtained CHO-resistant cells are referred to as LY8-CHO and NU-DUL-1-CHO, respectively. CHO-resistant cells were treated with doxorubicin, vincristine, and 4-HC every 22 days to maintain drug tolerance to CHO. […] To maintain RCHO resistance, LY8-RCHO cells and NU-DUL-1-RCHO cells were treated with 32 μg/mL of rituximab containing 20% (v/v) of NHS every 22 days, followed by treatment with doxorubicin, vincristine, and 4-HC. After 48 hours of treatment with doxorubicin, vincristine and 4-HC, drug resistance to CHO and RCHO was determined by a series of CCK-8 assays.
Cells were seeded in a 96-well plate at a density of 1×10^4/100 μL/well. Cells were pretreated with IPI-145, abemaciclib, AZD4547, PF-573228, R788, or saracatinib at increasing concentrations with or without CHO for 48 hours prior to performing CytoTox-Glo™ cytotoxicity assay. We performed cytotoxicity assay by using a CytoTox-Glo™ cytotoxicity assay kit (Promega Inc., Madison, Wis.) according to their instructions. Briefly, 50 μL of CytoTox-Glo™ cytotoxicity assay reagent was added to all wells, mixed by orbital shaking, and then incubated for 15 minutes at room temperature. Luminescence of experimental dead cells was detected with a Synergy HT microplate reader (BioTek, Biotek Winooski, Minn.), wherein 50 μL of lysate was added to all wells, mixed and incubated for 15 minutes at room temperature prior to detection of total luminescence. Cytotoxicity was calculated according to the following formula: Cytotoxicity (%)=Experimental dead cell luminescence/Total luminescence×100%.

NU-DUL-1-RCHO cells [5] = assay: Aldefluor analysis (ALDH1+ cells); assay type: cell-based, human
Method: ALDH1 is a selectable marker for a variety of normal and cancer stem cells, including hematopoietic stem cells. Therefore, we assessed the number of cancer stem cells in hematopoietic malignancies by detecting ALDH1 positive cells. As previously described, we used an ALDEFLUOR™ kit (StemCell Technologies, Vancouver, BC, CA) to detect populations with high ALDH1 activity. Briefly, 1×10^6 cells were suspended in 1 mL of assay buffer containing 1 μM of BAAA, a substrate of […]. Suspended cells were then equally divided into two samples, one as a negative control and the other as a test sample. To form the negative control, […] of DEAB, a specific ALDH inhibitor, was added to one equally-divided sample. Cells were then incubated at 37° C. for 30 minutes prior to flow cytometry analysis.

[6] = tested on: AKT phosphorylation, SOX2, FGFR1/2 and CSC-associated molecules in NU-DUL-1-RCHO cells; assay: Immunoblot analysis; assay type: cell-based, human
NU-DUL-1-RCHO cells [7] = assay: CDC assay (rituximab-mediated complement-dependent cytotoxicity); assay type: cell-based, human; settings: pre-treated with inhibitor 24 hours, then rituximab and 20% NHS 2 hours
Method: We constructed LY8 cells and NU-DUL-1 cells that are resistant to rituximab-mediated complement-dependent cytotoxicity (CDC). Briefly, original LY8 (LY8-ORI) cells and original NU-DUL-1 (NU-DUL-1-ORI) cells were treated with rituximab containing 20% (v/v) of NHS (Roche, Basel, Switzerland) with a concentration of gradually increasing from 4 μg/mL to 32 μg/mL to construct drug-resistant cells. […] Cytolysis induced by CDC was evaluated by detection of positive cells stained with propidium iodide (PI) through fluorescence activated cell sorting (FACS).

SMILES	complete remission rate [1]	SOX2 expression level in tumor tissue (IHC) [2]	cell proliferation (EdU incorporation) (NU-DUL-1-RCHO cells [3])	tumor growth (total photon flux) (NU-DUL-1-RCHO-Luc cells; inhibitor combined with R-CHOP, dosing per Table 1)	survival time (NU-DUL-1-RCHO-Luc cells; inhibitor combined with R-CHOP, experiment ended at day 120)	survival time (NU-DUL-1-RCHO-Luc cells; regimen or inhibitor used alone, dosing per Table 1)	cytotoxicity (induction of cell death), inhibitor used alone (NU-DUL-1-RCHO cells [4]; inhibitor alone at increasing concentrations)	reversal of resistance to CHO (cytotoxicity of CHO), inhibitor co-treated with CHO (NU-DUL-1-RCHO cells [4]; inhibitor at increasing concentrations with CHO)	proportion of ALDH1+ cells (CSCs) (NU-DUL-1-RCHO cells [5])	levels of CSC-associated molecules (OCT4, NANOG, KLF4, c-MYC, CD34, CD133) [6]	effect on resistance to R-mediated CDC (NU-DUL-1-RCHO cells [7])
CC1=C(/C=C/C(C)=C/C=C/C(C)=C/C(=O)O)C(C)(C)CCC1 [ATRA, all-trans retinoic acid]	about 85%	–	–	–	–	–	–	–	–	–	–
COc1cc(CCc2cc(NC(=O)c3ccc(N4C[C@@H](C)N[C@@H](C)C4)cc3)n[nH]2)cc(OC)c1 [AZD4547]	–	significantly reduced the expression levels of SOX2 compared with a saline control	promoted proliferation of NU-DUL-1-RCHO cells due to involvement in inhibition of PI3K/AKT signaling, but to a lesser extent than PI3K inhibition	completely inhibit tumor growth	prolong the survival time to the end of the experiment at day 120	significantly prolonged the survival time	negligible effect on induction of cell death; also recorded: only negligible cytotoxicity on drug-resistant cells	restored sensitivity of RCHO-resistant cells to CHO; also recorded: significantly enhanced cytotoxicity of CHO	significantly reduced ALDH1+ subpopulations in NU-DUL-1-RCHO cells, but to a greatly reduced extent compared with duvelisib	also reduced their levels but to a greatly reduced extent compared with duvelisib	exacerbates resistance to R-mediated CDC
